Results as given in patent US10336762B2 (priority 2017, dated 2019).
Where two headings read alike, the source gives them in different places.

Key:
TNFα = assay: cells; format: cell-based, human; settings: LPS-stimulated human monocytes, read-out: EC50 TNF
IRAK4 enzyme = IRAK4 enzyme (Homo sapiens (Human), UniProt Q9NWZ3); assay: biochemical; format: biochemical; settings: IRAK4 enzyme, 500 μM ATP
[1] = Homo sapiens, Monocyte, TNFα content

Sequence of IRAK4 enzyme (Q9NWZ3 whole entry): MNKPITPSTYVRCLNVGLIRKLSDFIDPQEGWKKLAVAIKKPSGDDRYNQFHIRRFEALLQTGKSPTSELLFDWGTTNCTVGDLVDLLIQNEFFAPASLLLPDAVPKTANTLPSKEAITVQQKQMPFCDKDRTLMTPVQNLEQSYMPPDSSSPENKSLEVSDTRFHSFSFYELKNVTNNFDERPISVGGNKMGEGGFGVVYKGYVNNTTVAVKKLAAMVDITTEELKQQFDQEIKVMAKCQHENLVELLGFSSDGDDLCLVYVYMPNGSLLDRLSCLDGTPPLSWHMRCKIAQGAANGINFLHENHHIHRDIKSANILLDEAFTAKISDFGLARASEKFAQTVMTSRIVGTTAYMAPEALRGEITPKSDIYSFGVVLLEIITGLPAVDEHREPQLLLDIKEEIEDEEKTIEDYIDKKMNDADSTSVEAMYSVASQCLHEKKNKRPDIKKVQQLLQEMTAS

Compound `CC(C)Nc1cc(-c2ccc3cc(C#N)cnn23)ncc1C(=O)NCC1(O)CCS(=O)(=O)C1` (stereo not shown) [Example 122, 6-(3-cyanopyrrolo[1,2-b]pyridazin-7-yl)-N-((3-hydroxy-1,1-dioxidotetrahydrothiophen-3-yl)methyl)-4-(isopropylamino)nicotinamide] has an EC50 (TNFα; [1]) of 867 nM and an IC50 (IRAK4 enzyme; TR-FRET) of 17 nM.
For `CC(C)(O)[C@H](F)CNC(=O)c1cnc(-c2ccc3cc(C#N)cnn23)cc1Nc1cccnc1F` [Example 229, (R)-6-(3-cyanopyrrolo[1,2-b]pyridazin-7-yl)-N-(2-fluoro-3-hydroxy-3-methylbutyl)-4-((2-fluoropyridin-3-yl)amino)nicotinamide], the EC50 (TNFα; [1]) was 135 nM and the IC50 (IRAK4 enzyme; TR-FRET) was 1 nM.
`Cc1cc(Nc2cc(-c3ccc4cc(C#N)cnn34)ncc2C(=O)NC[C@@H](F)C(C)(C)O)ncc1C#N` [Example 585, (R)-4-((5-cyano-4-methyl-pyridin-2-yl)amino)-6-(3-cyanopyrrolo[1,2-b]pyridazin-7-yl)-N-(2-fluoro-3-hydroxy-3-methyl-butyl)nicotinamide] gave an EC50 (TNFα; [1]) of 104 nM and an IC50 (IRAK4 enzyme; TR-FRET (HTRF)) of 2 nM.
With `CC(C)(O)[C@H](F)CNC(=O)c1cnc(-c2ccc3cc(C#N)cnn23)cc1N[C@H]1C[C@@H]2C[C@H]1CN2S(C)(=O)=O` [Example 113, 6-(3-cyanopyrrolo[1,2-b]pyridazin-7-yl)-N-((R)-2-fluoro-3-hydroxy-3-methylbutyl)-4-(((1S,4S,5S)-2-(methylsulfonyl)-2-azabicyclo[2.2.1]heptan-5-yl)amino)nicotinamide] the EC50 (TNFα; [1]) was 3670 nM and the IC50 (IRAK4 enzyme; TR-FRET) was 22 nM.
In the case of `CC(C)(O)[C@H](F)CNC(=O)c1cnc(-c2ccc3cc(C#N)cnn23)cc1N[C@H]1C[C@H](O)C1` [Example 169, 6-(3-cyanopyrrolo[1,2-b]pyridazin-7-yl)-N-((R)-2-fluoro-3-hydroxy-3-methylbutyl)-4-(((1r,3R)-3-hydroxycyclobutyl)amino) nicotinamide], the EC50 (TNFα; [1]) is reported as over 10000 nM and the IC50 (IRAK4 enzyme; TR-FRET) is reported as 183 nM.
`N#Cc1cnn2c(-c3cc(N[C@H]4CCC[C@@H](O)C4)c(C(=O)NC4CC4)cn3)ccc2c1` [Example 514, 6-(3-cyanopyrrolo[1,2-b]pyridazin-7-yl)-N-cyclopropyl-4-(((1S,3R)-3-hydroxy-cyclohexyl)amino) nicotinamide] gave an EC50 (TNFα; [1]) of 213 nM and an IC50 (IRAK4 enzyme; TR-FRET (HTRF)) of 9 nM.
For `CC(C)(O)[C@H](F)CNC(=O)c1cnc(-c2ccc3cc(C#N)cnn23)cc1NC1CC1CO` (single isomer, unassigned) [Example 302], the EC50 (TNFα; [1]) was 61 nM and the IC50 (IRAK4 enzyme; TR-FRET) was 1 nM.
`COC(=O)NC1(c2ccc(Nc3cc(-c4ccc5cc(C#N)cnn45)ncc3C(=O)NC[C@@H](F)C(C)(C)O)cc2)CC1` [Example 212, (R)-methyl (1-(4-((2-(3-cyanopyrrolo[1,2-b]pyridazin-7-yl)-5-((2-fluoro-3-hydroxy-3-methylbutyl)carbamoyl)pyridin-4-yl)amino)phenyl)cyclopropyl)carbamate] showed an EC50 (TNFα; [1]) of 13 nM and an IC50 (IRAK4 enzyme; TR-FRET) of under 1 nM.
For `CC(C)(O)[C@H](F)CNC(=O)c1cnc(-c2ccc3cc(C#N)cnn23)cc1N[C@H]1CC[C@H](OC(=O)NC2CC2)CC1` [Example 163, (1R,4r)-4-((2-(3-cyano-pyrrolo[1,2-b]pyridazin-7-yl)-5-(((R)-2-fluoro-3-hydroxy-3-methylbutyl)carbamoyl)pyridin-4-yl)amino)cyclohexyl cyclopropylcarbamate], the EC50 (TNFα; [1]) was over 10000 nM and the IC50 (IRAK4 enzyme; TR-FRET) was 90 nM.
With `CC(C)(O)[C@H](F)CNC(=O)c1cnc(-c2ccc3cc(C#N)cnn23)cc1N[C@@H]1CCOC[C@H]1F` [Example 150, 6-(3-cyanopyrrolo[1,2-b]pyridazin-7-yl)-N-((R)-2-fluoro-3-hydroxy-3-methylbutyl)-4-(((3S,4R)-3-fluorotetrahydro-2H-pyran-4-yl)amino)nicotinamide] the EC50 (TNFα; [1]) was 51 nM and the IC50 (IRAK4 enzyme; TR-FRET) was under 1 nM.
In the case of `COC(=O)NCC1(F)CC(Nc2cc(-c3ccc4cc(C#N)cnn34)ncc2C(=O)NC[C@@H](F)C(C)(C)O)C1` (single isomer, unassigned) [Example 765], the EC50 (TNFα; TNFα content) is reported as 323 nM and the IC50 (IRAK4 enzyme; TR-FRET (HTRF)) is reported as 6 nM.
`CC(C)(O)[C@H](F)CNC(=O)c1cnc(-c2ccc3cc(C#N)cnn23)cc1Nc1ccc(-c2ccon2)nc1` [Example 775, (R)-6-(3-cyanopyrrolo[1,2-b]pyridazin-7-yl)-N-(2-fluoro-3-hydroxy-3-methylbutyl)-4-((6-(isoxazol-3-yl)pyridin-3-yl)amino)nicotinamide] gave an EC50 (TNFα; [1]) of 25 nM and an IC50 (IRAK4 enzyme; TR-FRET (HTRF)) of under 1 nM.
`CC(C)(C)OC(=O)N[C@H]1CC[C@H](Nc2cc(-c3ccc4cc(C#N)cnn34)ncc2C(=O)NC[C@@H](F)C(C)(C)O)CC1` [Example 305, tert-butyl ((1R,4r)-4-((2-(3-cyanopyrrolo[1,2-b]pyridazin-7-yl-5-(((R)-2-fluoro-3-hydroxy-3-methylbutyl)carbamoyl)pyridin-4-yl)amino)cyclohexyl) carbamate] showed an EC50 (TNFα; [1]) of 337 nM and an IC50 (IRAK4 enzyme; TR-FRET) of 1 nM.
For `COC1CN(C(=O)C23CCC(Nc4cc(-c5ccc6cc(C#N)cnn56)ncc4C(=O)NC[C@@H](F)C(C)(C)O)(CC2)CC3)C1` [Example 396, (R)-6-(3-cyanopyrrolo[1,2-b]pyridazin-7-yl)-N-(2-fluoro-3-hydroxy-3-methylbutyl)-4-((4-(3-methoxyazetidine-1-carbonyl)bicyclo[2.2.2]octan-1-yl)amino) nicotinamide], the EC50 (TNFα; [1]) was 24 nM and the IC50 (IRAK4 enzyme; TR-FRET) was 1 nM.
With `COC(=O)NC12CCC(Nc3cc(-c4ccc5cc(C#N)cnn45)ncc3C(=O)NC3CCC(NC(=O)N4CCOCC4)CC3)(CC1)CC2` (stereo not shown) [Example 270, methyl (4-((2-(3-cyano-pyrrolo[1,2-b]pyridazin-7-yl)-5-((4-(morpholine-4-carboxamido)cyclohexyl)carbamoyl)pyridin-4-yl)amino)bicyclo[2.2.2]octan-1-yl)carbamate] the EC50 (TNFα; [1]) was 49 nM and the IC50 (IRAK4 enzyme; TR-FRET) was 1 nM.
For `CC1(C)C(=O)Nc2ccc(Nc3cc(-c4ccc5cc(C#N)cnn45)ncc3C(=O)NC[C@@H](F)C(C)(C)O)cc21` [Example 653, (R)-6-(3-cyanopyrrolo[1,2-b]pyridazin-7-yl)-4-((3,3-dimethyl-2-oxoindolin-5-yl)amino)-N-(2-fluoro-3-hydroxy-3-methylbutyl) nicotinamide], the EC50 (TNFα; [1]) was 201 nM and the IC50 (IRAK4 enzyme; TR-FRET (HTRF)) was 3 nM.
`CC(=O)N1C[C@H]2C[C@H](Nc3cc(-c4ccc5cc(C#N)cnn45)ncc3C(=O)NC[C@@H](F)C(C)(C)O)C[C@H]2C1` [Example 249, 4-(((3aR,5s,6aS)-2-acetyl-octahydrocyclopenta[c]pyrrol-5-yl)amino)-6-(3-cyanopyrrolo[1,2-b]pyridazin-7-yl)-N-((R)-2-fluoro-3-hydroxy-3-methylbutyl) nicotinamide] showed an EC50 (TNFα; [1]) of 100 nM and an IC50 (IRAK4 enzyme; TR-FRET) of 2 nM.
Compound `CC(=O)N1CC(Nc2cc(-c3ccc4cc(C#N)cnn34)ncc2C(=O)NC[C@@H](F)C(C)(C)O)C1` [Example 449, (R)-4-((1-acetylazetidin-3-yl)amino)-6-(3-cyano-pyrrolo[1,2-b]pyridazin-7-yl)-N-(2-fluoro-3-hydroxy-3-methylbutyl)nicotinamide] has an EC50 (TNFα; [1]) of 361 nM and an IC50 (IRAK4 enzyme; TR-FRET (HTRF)) of 3 nM.
`CC(C)(O)[C@H](F)CNC(=O)c1cnc(-c2ccc3cc(C#N)cnn23)cc1Nc1ccc(F)cn1` [Example 687, (R)-6-(3-cyanopyrrolo[1,2-b]pyridazin-7-yl)-N-(2-fluoro-3-hydroxy-3-methylbutyl)-4-((5-fluoro-pyridin-2-yl)amino) nicotinamide] gave an EC50 (TNFα; [1]) of 42 nM and an IC50 (IRAK4 enzyme; TR-FRET (HTRF)) of under 1 nM.
Work on `CC(C)(O)[C@H](F)CNC(=O)c1cnc(-c2ccc3cc(C#N)cnn23)cc1N[C@H]1C[C@H](CN2CCOC2=O)C1` [Example 714, 6-(3-cyanopyrrolo[1,2-b]pyridazin-7-yl)-N-((R)-2-fluoro-3-hydroxy-3-methylbutyl)-4-(((1r,3R)-3-((2-oxooxazolidin-3-yl)methyl)cyclobutyl)amino)nicotinamide] yielded an EC50 (TNFα; [1]) of 35 nM and an IC50 (IRAK4 enzyme; TR-FRET (HTRF)) of under 1 nM.
In the case of `CC(=O)N[C@H]1CC[C@H](NC(=O)c2cnc(-c3ccc4cc(C#N)cnn34)cc2NC(C)C)CC1` [Example 13, N-((1r,4r)-4-acetamidocyclohexyl)-6-(3-cyanopyrrolo[1,2-b]pyridazin-7-yl)-4-(isopropylamino)nicotinamide], the EC50 (TNFα; [1]) is reported as 79 nM and the IC50 (IRAK4 enzyme; TR-FRET) is reported as under 1 nM.
Compound `CC(C)(O)[C@H](F)CNC(=O)c1cnc(-c2ccc3cc(C#N)cnn23)cc1Nc1ccc(N2CC3(COC3)C2)nc1` [Example 684, (R)-4-((6-(2-oxa-6-azaspiro[3.3]heptan-6-yl)pyridin-3-yl)amino)-6-(3-cyanopyrrolo[1,2-b]pyridazin-7-yl)-N-(2-fluoro-3-hydroxy-3-methylbutyl)nicotinamide] has an EC50 (TNFα; [1]) of 89 nM and an IC50 (IRAK4 enzyme; TR-FRET (HTRF)) of 1 nM.
`CC(C)(O)[C@H](F)CNC(=O)c1cnc(-c2ccc3cc(C#N)cnn23)cc1Nc1ccc2nccn2c1` [Example 974, (R)-6-(3-cyanopyrrolo[1,2-b]pyridazin-7-yl)-N-(2-fluoro-3-hydroxy-3-methylbutyl)-4-(imidazo[1,2-a]pyridin-6-ylamino)nicotinamide] was tested, and the EC50 (TNFα; Homo sapiens, Monocyte, TNFα by TR-FRET) was 112 nM and the IC50 (IRAK4 enzyme; TR-FRET) was 1 nM.
In the case of `CC(CCS(C)(=O)=O)Nc1cc(-c2ccc3cc(C#N)cnn23)ncc1C(=O)NC[C@@H](F)C(C)(C)O` (stereo partly drawn) [Example 440, 6-(3-cyanopyrrolo[1,2-b]pyridazin-7-yl)-N-((R)-2-fluoro-3-hydroxy-3-methylbutyl)-4-((4-(methylsulfonyl)butan-2-yl)amino)nicotinamide], the EC50 (TNFα; [1]) is reported as 715 nM and the IC50 (IRAK4 enzyme; TR-FRET (HTRF)) is reported as 2 nM.
`CC(C)Nc1cc(-c2ccc3cc(C(N)=O)cnn23)ncc1C(=O)NCC1CS(=O)(=O)C1` [Example 79, 7-(5-(((1,1-dioxidothietan-3-yl)methyl)carbamoyl)-4-(isopropylamino)pyridin-2-yl)pyrrolo[1,2-b] pyridazine-3-carboxamide] gave an EC50 (TNFα; [1]) of 1820 nM and an IC50 (IRAK4 enzyme; TR-FRET) of 18 nM.
`CC(C)(O)[C@H](F)CNC(=O)c1cnc(-c2ccc3cc(C#N)cnn23)cc1Nc1ccc(-n2ccnc2)nc1` [Example 768, (R)-4-((6-(1H-imidazol-1-yl)pyridin-3-yl)amino)-6-(3-cyanopyrrolo[1,2-b]pyridazin-7-yl)-N-(2-fluoro-3-hydroxy-3-methyl-butyl)nicotinamide] was tested, and the EC50 (TNFα; [1]) was 24 nM and the IC50 (IRAK4 enzyme; TR-FRET (HTRF)) was under 1 nM.
